One block for each compound: values may come before it.
Key:
[1] = Cmax in healthy adult human subjects at 300 mg, po dosed 30 minutes after ingestion of soup (melahu rasam) with black pepper by HPLC method; format: ADME, organism-based; set-up: dose 300 mg, route oral; conditions: in vivo
[2] = Mean residence time in healthy adult human subjects at 300 mg, po by HPLC method; format: ADME, organism-based; conditions: in vivo
Homo sapiens [3] = assay: Drug lag time in healthy adult human subjects at 300 mg, po dosed 30 minutes after ingestion of soup (melahu rasam) with black pepper by HPLC method; format: ADME, organism-based; conditions: in vivo, 0.5 h
[4] = AUC (0 to infinity) in healthy adult human subjects at 300 mg, po dosed 30 minutes after ingestion of soup (melahu rasam) with black pepper by HPLC method; format: ADME, organism-based; set-up: dose 300 mg, time infinity, route oral; conditions: in vivo
Homo sapiens [5] = assay: Volume of distribution in healthy adult human subjects at 300 mg, po by HPLC method; format: ADME, organism-based; conditions: in vivo
[6] = AUC (0 to 48 hrs) in healthy adult human subjects at 300 mg, po dosed 30 minutes after ingestion of soup (melahu rasam) with black pepper by HPLC method; format: ADME, organism-based; set-up: time < 48 hr, dose 300 mg, route oral; conditions: in vivo
Mus musculus = assay: Ratio of drug level in 0.6 mg, po piperine pre-treated Swiss albino mouse at 10 mg, po to drug level in normal Swiss albino mouse at 10 mg, po; format: ADME, organism-based; conditions: in vivo
[7] = Mean residence time in healthy adult human subjects at 300 mg, po dosed 30 minutes after ingestion of soup (melahu rasam) with black pepper by HPLC method; format: ADME, organism-based; conditions: in vivo
Homo sapiens [8] = assay: Drug absorption in healthy adult human subjects at 300 mg, po by HPLC method; format: ADME, organism-based; conditions: in vivo
[9] = AUC (0 to 10 hrs) in normal Swiss albino mouse at 10 mg, po by HPLC method; format: ADME, organism-based; set-up: time < 10 hr, dose 10 mg, route oral; conditions: in vivo
Homo sapiens [10] = assay: Drug lag time in healthy adult human subjects at 300 mg, po by HPLC method; format: ADME, organism-based; conditions: in vivo
[11] = Cmax in healthy adult human subjects at 300 mg, po by HPLC method; format: ADME, organism-based; set-up: dose 300 mg, route oral; conditions: in vivo
[12] = AUC (0 to 10 hrs) in 0.6 mg, po piperine pre-treated Swiss albino mouse at 10 mg, po by HPLC method; format: ADME, organism-based; set-up: dose 0.6 mg, time < 10 hr, route oral; conditions: in vivo
[13] = AUC (0 to 48 hrs) in healthy adult human subjects at 300 mg, po by HPLC method; format: ADME, organism-based; set-up: time < 48 hr, dose 300 mg, route oral; conditions: in vivo
[14] = Clearance in healthy adult human subjects at 300 mg, po dosed 30 minutes after ingestion of soup (melahu rasam) with black pepper by HPLC method; format: ADME, organism-based; conditions: in vivo
[15] = Elimination half life in healthy adult human subjects at 300 mg, po by HPLC method; format: ADME, organism-based; conditions: in vivo, read-out: beta t1/2 (converted)
Homo sapiens [16] = assay: Drug absorption in healthy adult human subjects at 300 mg, po dosed 30 minutes after ingestion of soup (melahu rasam) with black pepper by HPLC method; format: ADME, organism-based; conditions: in vivo, 0.5 h
[17] = Tmax in healthy adult human subjects at 300 mg, po by HPLC method; format: ADME, organism-based; conditions: in vivo
[18] = Tmax in healthy adult human subjects at 300 mg, po dosed 30 minutes after ingestion of soup (melahu rasam) with black pepper by HPLC method; format: ADME, organism-based; conditions: in vivo
Homo sapiens [19] = assay: Volume of distribution in healthy adult human subjects at 300 mg, po dosed 30 minutes after ingestion of soup (melahu rasam) with black pepper by HPLC method; format: ADME, organism-based; conditions: in vivo, 0.5 h
[20] = Elimination half life in healthy adult human subjects at 300 mg, po dosed 30 minutes after ingestion of soup (melahu rasam) with black pepper by HPLC method; format: ADME, organism-based; conditions: in vivo, read-out: beta t1/2 (converted)
[21] = Clearance in healthy adult human subjects at 300 mg, po by HPLC method; format: ADME, organism-based; conditions: in vivo
[22] = AUC (0 to infinity) in healthy adult human subjects at 300 mg, po by HPLC method; format: ADME, organism-based; set-up: dose 300 mg, route oral, time infinity; conditions: in vivo
[23] = Drug excretion in human urine assessed as hydroxyphenylphenylhydantoin and glucuronide conjugate level; format: ADME, tissue-based
[24] = AUC (0 to infinity) in healthy adult human subjects after consumption of 44 mg equivalent of piperine in form of pepper in soup (melahu rasam) by HPLC method; format: ADME, organism-based; set-up: dose 44 mg, time infinity; conditions: in vivo, po
Homo sapiens [25] = species: Homo sapiens; assay: Drug absorption rate constant in healthy adult human subjects after consumption of 44 mg equivalent of piperine in form of pepper in soup (melahu rasam) by HPLC method; format: ADME, organism-based; conditions: in vivo, po
[26] = Drug elimination rate constant in healthy adult human subjects after consumption of 44 mg equivalent of piperine in form of pepper in soup (melahu rasam) by HPLC method; format: ADME, organism-based; conditions: in vivo, po
[27] = Tmax in healthy adult human subjects after consumption of 44 mg equivalent of piperine in form of pepper in soup (melahu rasam) by HPLC method; format: ADME, organism-based; conditions: in vivo, po
[28] = Cmax in healthy adult human subjects after consumption of 44 mg equivalent of piperine in form of pepper in soup (melahu rasam) by HPLC method; format: ADME, organism-based; set-up: dose 44 mg; conditions: in vivo, po
[29] = Tmax in Swiss albino mouse serum at 0.3 mg, po by HPLC method; format: ADME, organism-based
[30] = Cmax in Swiss albino mouse serum at 0.3 mg, po by HPLC method; format: ADME, organism-based; set-up: dose 0.3 mg, route oral
[31] = AUC (0 to 12.5 hrs) in healthy adult human subjects after consumption of 44 mg equivalent of piperine in form of pepper in soup (melahu rasam) by HPLC method; format: ADME, organism-based; set-up: dose 44 mg, time < 12.5 hr; conditions: in vivo, po

Cmax [1]: 4310 ng/mL | MRT [2]: 34.2 h | Tlag (Homo sapiens [3]): 0.168 h | AUC(0-inf) [4]: 332 µg·h/mL | Vd (Homo sapiens [5]): 65.02 L | AUC(0-t) at 48 h [6]: 153 µg·h/mL | Ratio (Mus musculus): 1.8 | MRT [7]: 70.9 h | ka (Homo sapiens [8]): 0.666 h⁻¹ | AUC(0-t) at 10 h [9]: 716 µg·h/mL | Tlag (Homo sapiens [10]): 0.655 h | Cmax [11]: 3820 ng/mL | AUC(0-t) at 10 h [12]: 891 µg·h/mL | AUC(0-t) at 48 h [13]: 102 µg·h/mL | CL/F [14]: 15.9 mL/min | half-life [15]: 22.5 h | ka (Homo sapiens [16]): 1.177 h⁻¹ | Tmax [17]: 5.32 h | Tmax [18]: 3.38 h | Vd (Homo sapiens [19]): 64.58 L | half-life [20]: 49.7 h | CL/F [21]: 41.3 mL/min | AUC(0-inf) [22]: 143 µg·h/mL
SMILES: O=C1N=C([O-])NC1(c1ccccc1)c1ccccc1.[Na+] [PHENYTOIN SODIUM]

Drug excretion [23]: 60%
SMILES: O=C1NC(=O)C(c2ccccc2)(c2ccccc2)N1 [PHENYTOIN]

AUC(0-inf) [24]: 5.3 µg·h/mL | ka (Homo sapiens [25]): 1.41 h⁻¹ | k el [26]: 2.22e-05 s⁻¹ | Tmax [27]: 2.5 h | Cmax [28]: 400 ng/mL | Tmax [29]: 6 h | Cmax [30]: 5470 ng/mL | AUC(0-t) at 12.5 h [31]: 3.37 µg·h/mL
SMILES: O=C(/C=C/C=C/c1ccc2c(c1)OCO2)N1CCCCC1 [PIPERINE]

From ChEMBL document CHEMBL3785008, “Piperine in food: interference in the pharmacokinetics of phenytoin” (Eur J Drug Metab Pharmacokinet, 2001)
